Data taken from a melting point compilation (Tetko et al.; mined from patent text by program, amines drawn as free bases though some values may be those of a salt).

Work on `Cn1c(=O)c(-c2c(Cl)cccc2Cl)cc2cnc(Nc3ccccc3)nc21` yielded a melting point of 247 to 249 °C. `O=C(O)Cc1nn(Cc2nc3cc(Br)ccc3s2)c(=O)c2ccccc12` showed a melting point of 214 °C. `CN1c2c(Cl)cc(CC(=O)O)cc2CCC1c1ccccc1` (centres undefined) showed a melting point of 111 to 112 °C. Work on `CNS(=O)(=O)c1ccc(Oc2ccc(N)cc2)cc1` yielded a melting point of 121 to 122 °C. With `N#Cc1ccc(N(Cc2ccccc2)n2cnnc2)cc1-c1ccc(OS(N)(=O)=O)cc1` the melting point was 157 to 160 °C. Work on `CC(C)(C)OCCCC1c2ccccc2COc2cccc(O)c21` (centres undefined) yielded a melting point of 113 to 115 °C. Compound `COC(=O)c1ccc(CC23CCCCN2C(=O)N(c2cc(Cl)cc(Cl)c2)C3=O)cc1` (centres undefined) has a melting point of 51 °C. In the case of `COC(=O)c1nc(OC)n2c1CN=C(c1ccccc1Cl)c1cc(Cl)ccc1-2`, the melting point is reported as 155 to 160 °C. With `C[C@H](NC(=O)c1ccccc1)C(=O)CCl` the melting point was 120 to 122 °C. With `CNc1c(Cl)cc2c3c(cccc13)C(=O)N(C1CCN(C)CC1)C2=O` the melting point was 298 to 302 °C. With `CN1C(=O)NC(Cc2ccccc2)C1=O` (centres undefined) the melting point was 172 °C. `CC1(C)CC(=O)C(S(=O)CC2CCCCC2)=C(O)C1` (centres undefined) gave a melting point of 77 to 79.5 °C. Compound `O=C1COCCN1CCn1c2ccccc2c2c(N3CCCC3)nc(N3CCCC3)nc21` has a melting point of 179 to 180 °C. In the case of `COc1ccccc1N1CCN(CCCNC(=O)c2csc3c(=O)cc(-c4ccccc4)oc23)CC1`, the melting point is reported as 161 to 162 °C. `CC(C)CCC1(c2ccccc2)CC(O)=C(Sc2ccccc2)C(=O)O1` (centres undefined) gave a melting point of 154 to 155 °C. Compound `CC(C)(Cc1nc2c(N)nc3ccccc3c2s1)OC(N)=O` has a melting point of 222 to 223 °C. In the case of `CN1CCC(=C2c3ccccc3COc3cc(Cl)ccc32)CC1`, the melting point is reported as 113 to 116 °C. In the case of `COc1ccc(CNc2ncnc(Cl)c2N)cc1OC`, the melting point is reported as 185 to 188 °C. Compound `C=C(C)C(=O)NCc1ccc(S(=O)(=O)ON=C2c3ccccc3-c3ccccc32)cc1` has a melting point of 187 to 188 °C. `NC(=O)c1nc(-c2c(Cl)cc(C(F)(F)F)cc2Cl)[nH]c1C(N)=O` showed a melting point of 306 to 308 °C. Work on `O=c1nc(Cl)cnn1-c1cc(Cl)cc(Cl)c1` yielded a melting point of 148 to 149 °C. `C=CCONC(=O)c1c(Cl)nn(C)c1Cl` gave a melting point of 96 to 97 °C. `CC1=C(Cn2ccnc2)CCc2ccc(C(=O)O)cc21` showed a melting point of 278 to 280 °C. In the case of `COc1cc(/C=C/c2ccc(C(C)(C)C)cc2)cc(OC)c1OC`, the melting point is reported as 127 to 128 °C. `CN(C)C(=O)C1(c2cc(C#N)ccc2O)CCCC1` gave a melting point of 144 to 146 °C. Compound `COC(=O)c1cc(S(C)(=O)=O)c(Br)cc1C` has a melting point of 150 °C. Compound `COc1ccc(C2=N[C@H](c3ccccc3)[C@@H](OC(=O)Oc3ccc([N+](=O)[O-])cc3)CO2)cc1` (racemic) has a melting point of 164 °C. `COc1cc(OC)nc(NC(=O)NS(=O)(=O)c2cccc3c2SC(C)(C)C3)n1` showed a melting point of 190 to 192 °C. For `CC(C)(ON=C(C(=O)N[C@@H]1C(=O)N[C@@H]1C(N)=O)c1csc(NC(=O)CCl)n1)C(=O)OCc1ccc([N+](=O)[O-])cc1` (relative stereo), the melting point was 144 to 147 °C. In the case of `COc1ccc(CC(=O)O)c(C(=O)O)c1`, the melting point is reported as 175 to 177 °C. Work on `CCOc1nc(C(F)(F)F)cc(=O)n1-c1cc(OC)c(Br)cc1F` yielded a melting point of 126 to 128 °C. `O=C(Nc1n[nH]c(=S)s1)NC(Cc1ccccc1)C(=O)NCc1ccc(C(F)(F)F)cc1` (centres undefined) showed a melting point of 217 to 218 °C. With `CC1=NC(NC(=O)Nc2cccc(C)n2)C(=O)N(CC(=O)N2CC3CCC(CC3)C2)c2c(C)cccc21` (centres undefined) the melting point was 151 to 152 °C. With `CCOC(=O)C=Cc1ccc(N(CCOC)C(=O)c2ccncc2)cc1` the melting point was 98.4 to 102 °C. With `COC(=O)c1cc(C(=O)c2ncc3ccc(C(=O)OC(C)(C)C)cn23)ccc1[N+](=O)[O-]` the melting point was 170 °C. In the case of `O=C1CC(=O)CC(c2cc([N+](=O)[O-])ccc2F)C1`, the melting point is reported as 171 to 173 °C. `CS(=O)(=O)N(Cc1cccnc1)c1cccc([N+](=O)[O-])c1` gave a melting point of 131 to 133 °C. For `COc1ccc(Cl)cc1[C@]1(F)C(=O)N(C(=O)NC(C)(C)C(=O)OC(C)(C)C)c2cc(C(F)(F)F)ccc21`, the melting point was 57 to 60 °C. `O=C(O)COc1ccc2cc(-c3csc(Cc4c(Cl)cccc4Cl)n3)ccc2c1` showed a melting point of 205 to 207 °C. Work on `CC(=O)N1c2ccccc2Sc2nccnc21` yielded a melting point of 174 to 175 °C. `O=C1Nc2ccccc2Sc2nccn21` showed a melting point of 250 to 252 °C. With `CCOC(=O)C=Cc1ccc2cc(C=CC(=O)OCC)ccc2c1` the melting point was 150 to 151 °C. With `Fc1ccc(Nc2ncnc3cnc(OC4CCOC4)nc23)cc1Cl` (centres undefined) the melting point was 163 to 165 °C. `OC[C@H](O)[C@@H](O)CCNCc1ccccc1` gave a melting point of 117 to 118 °C. Compound `Cc1ccc(S(=O)(=O)N(c2ccc(Cl)cc2C(N)=O)C(C)C)cc1` has a melting point of 177 to 178 °C. For `COC(=O)Cc1ccc(CN2CCN(C(c3ccccc3)c3ccccn3)CC2)cc1` (centres undefined), the melting point was 122 to 123 °C. `CCCCCc1c(/C=C/C(=O)Oc2ccc([N+](=O)[O-])cc2)sc2cc(OC)ccc12` gave a melting point of 111 to 113 °C. With `O=C(O)Cc1ccc(OCCNC(=O)C2Cc3ccccc3N2S(=O)(=O)c2ccc(-c3cc(F)ccc3Cl)cc2)cc1` (centres undefined) the melting point was 78 to 84 °C. Work on `CN(C)CCSc1cc(NC(=O)OC(C)(C)C)c(NC(=O)CC(=O)c2cccc(C#N)c2)cc1C#Cc1ccccc1` yielded a melting point of 88 °C.
